Activity calls are given as the source filed them.
Key:
[1] = HeLa cell viability loss – 24 h, dry powder, set 2, cytotoxicity control, dose response (AID 651774); assay type: functional, cell-based
[2] = molecular target: Metabotropic glutamate receptor 5 (Rattus norvegicus, UniProt P31424); assay: Identification of a glycine sulfonamide based non-MPEP site positive allosteric potentiator (PAM) of mGlu5 (calcium_assay).; assay type: functional
Albumin = Albumin (Bos taurus, UniProt P02769); assay: Counterscreen for inhibitors of T-cell receptor (TCR)-CD3 interaction: Fluorescence-based biochemical high throughput dose response assay to identify inhibitors of T-cell receptor (TCR)-CD3 interaction using a TAMRA-labeled BSA probe.; assay type: functional
Prothrombin = Prothrombin (Bos taurus, UniProt P00735); assay: thrombin protease inhibitors – biochemical, fluorescence polarization, uHTS hits, dose response (AID 602369); assay type: functional
[3] = molecular target: 26S proteasome non-ATPase regulatory subunit 14 (Homo sapiens, UniProt O00487); assay: inhibition of proteasome subunit RPN11 – biochemical, fluorescence polarization, uHTS hits, confirmation (AID 602368); assay type: functional
[4] = HEK-293T cell viability reduction – luminescence, B-cell screen hits, cytotoxicity control for BCR NF-kB inhibitor project, dose response (AID 489021); assay type: functional, cell-based;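 note: HEK-293T cells carrying an NF-kB luciferase reporter; cells exposed to compound for about 14 hours before viability readout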
[5] = molecular target: 72 kDa type IV collagenase (Homo sapiens, UniProt P08253); assay: Dose Response validation of uHTS RPN11 inhibitor hits using a MMP-2 Fluorescence assay.; assay type: functional
72 kDa type IV collagenase, sequence (P08253 whole entry): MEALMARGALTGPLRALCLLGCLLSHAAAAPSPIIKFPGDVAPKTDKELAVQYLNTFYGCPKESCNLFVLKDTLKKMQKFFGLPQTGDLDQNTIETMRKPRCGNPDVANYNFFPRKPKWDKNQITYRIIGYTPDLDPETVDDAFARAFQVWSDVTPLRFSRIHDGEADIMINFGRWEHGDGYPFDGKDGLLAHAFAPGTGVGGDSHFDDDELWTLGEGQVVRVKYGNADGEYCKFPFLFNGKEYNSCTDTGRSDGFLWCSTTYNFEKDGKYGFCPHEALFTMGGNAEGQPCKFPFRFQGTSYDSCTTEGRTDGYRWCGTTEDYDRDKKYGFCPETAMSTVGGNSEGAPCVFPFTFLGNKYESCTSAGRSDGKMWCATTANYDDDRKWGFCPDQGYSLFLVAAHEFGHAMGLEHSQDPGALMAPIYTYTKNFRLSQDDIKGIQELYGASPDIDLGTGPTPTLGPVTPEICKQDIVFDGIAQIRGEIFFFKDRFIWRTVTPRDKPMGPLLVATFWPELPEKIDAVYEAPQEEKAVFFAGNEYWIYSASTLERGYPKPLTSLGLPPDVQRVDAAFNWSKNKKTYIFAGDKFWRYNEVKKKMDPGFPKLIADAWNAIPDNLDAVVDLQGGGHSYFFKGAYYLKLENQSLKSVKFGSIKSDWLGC

[6] = T. cruzi growth inhibition in host cells, dose response, cell-based, plate reader, dry powder, set 2 (AID 652275); assay type: functional
[7] = anti-trypanosomal activity in BESM host cells – imaging, CA-I/72 strain, bovine embryo skeletal muscle, dry powder, dose response (AID 651885); assay type: functional, cell-based
[8] = intracellular Trypanosoma cruzi inhibitors in host cells – cell-based, plate reader, cherry-pick samples, set 3, dose response (AID 651818); assay type: functional;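 note: compounds incubated with infected cells for about four days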
cells [9] = settings: A549
[10] = molecular target: Lysosomal acid glucosylceramidase (Homo sapiens, UniProt P04062); assay: Dose response cell-based high throughput screening assay to identify enhancers of beta-glucosidase activity. [Related pubchem assays: 784 ]; assay type: functional
Lysosomal acid glucosylceramidase, sequence (P04062 whole entry): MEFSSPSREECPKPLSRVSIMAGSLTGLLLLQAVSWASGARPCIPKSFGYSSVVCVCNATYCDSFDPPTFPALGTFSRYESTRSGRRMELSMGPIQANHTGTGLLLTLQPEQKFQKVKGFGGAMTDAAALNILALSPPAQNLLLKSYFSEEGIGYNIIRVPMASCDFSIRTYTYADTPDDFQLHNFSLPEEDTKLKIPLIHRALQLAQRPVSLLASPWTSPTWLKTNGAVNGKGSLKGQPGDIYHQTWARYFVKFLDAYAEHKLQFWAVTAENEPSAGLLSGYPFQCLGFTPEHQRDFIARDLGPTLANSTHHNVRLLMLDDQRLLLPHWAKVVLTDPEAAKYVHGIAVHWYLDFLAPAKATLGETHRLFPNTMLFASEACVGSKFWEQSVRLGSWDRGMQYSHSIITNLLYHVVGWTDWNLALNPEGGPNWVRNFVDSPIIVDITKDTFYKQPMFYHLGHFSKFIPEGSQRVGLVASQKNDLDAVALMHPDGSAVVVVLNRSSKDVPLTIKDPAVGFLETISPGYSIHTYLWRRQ

cells [11] = settings: HEK293;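 note: cells exposed to compound for 48 hours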
[12] = molecular target: 1-phosphatidylinositol 4,5-bisphosphate phosphodiesterase beta-3 (Homo sapiens, UniProt Q01970); assay: Fluorescence-based biochemical high throughput dose response assay to identify inhibitors of phospholipase C isozymes (PLC-B3).
1-phosphatidylinositol 4,5-bisphosphate phosphodiesterase beta-3, sequence (Q01970 whole entry): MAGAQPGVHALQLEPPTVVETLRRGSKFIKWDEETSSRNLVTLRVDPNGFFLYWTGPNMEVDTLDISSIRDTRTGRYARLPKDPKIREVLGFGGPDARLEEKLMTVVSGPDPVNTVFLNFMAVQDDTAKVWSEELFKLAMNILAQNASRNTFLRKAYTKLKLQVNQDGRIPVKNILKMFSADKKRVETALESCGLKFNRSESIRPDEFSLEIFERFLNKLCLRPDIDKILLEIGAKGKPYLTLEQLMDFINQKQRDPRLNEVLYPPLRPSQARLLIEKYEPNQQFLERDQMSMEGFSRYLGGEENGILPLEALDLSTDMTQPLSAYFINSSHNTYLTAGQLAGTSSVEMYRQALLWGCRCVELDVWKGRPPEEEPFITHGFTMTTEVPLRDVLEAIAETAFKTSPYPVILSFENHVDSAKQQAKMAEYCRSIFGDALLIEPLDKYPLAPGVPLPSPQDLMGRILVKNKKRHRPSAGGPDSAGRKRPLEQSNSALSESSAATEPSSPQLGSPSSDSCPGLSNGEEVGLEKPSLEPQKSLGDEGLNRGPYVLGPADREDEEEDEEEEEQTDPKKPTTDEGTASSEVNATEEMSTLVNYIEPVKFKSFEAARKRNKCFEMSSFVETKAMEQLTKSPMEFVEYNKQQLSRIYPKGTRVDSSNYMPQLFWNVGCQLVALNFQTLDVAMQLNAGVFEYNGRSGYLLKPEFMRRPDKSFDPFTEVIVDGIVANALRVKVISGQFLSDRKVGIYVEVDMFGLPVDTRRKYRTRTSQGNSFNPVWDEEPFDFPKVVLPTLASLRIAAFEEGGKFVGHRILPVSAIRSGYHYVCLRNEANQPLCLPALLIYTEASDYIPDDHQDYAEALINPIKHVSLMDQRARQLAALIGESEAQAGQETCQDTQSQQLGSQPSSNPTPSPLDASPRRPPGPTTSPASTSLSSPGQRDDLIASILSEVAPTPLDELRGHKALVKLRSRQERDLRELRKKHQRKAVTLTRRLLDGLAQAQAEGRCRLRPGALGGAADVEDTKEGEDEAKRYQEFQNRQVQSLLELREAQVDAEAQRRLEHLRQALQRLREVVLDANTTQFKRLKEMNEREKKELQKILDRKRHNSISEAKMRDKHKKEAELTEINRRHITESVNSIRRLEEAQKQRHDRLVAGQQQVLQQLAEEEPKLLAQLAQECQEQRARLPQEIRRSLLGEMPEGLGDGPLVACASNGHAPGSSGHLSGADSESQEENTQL

[13] = molecular target: 1-phosphatidylinositol 4,5-bisphosphate phosphodiesterase gamma-1 (Homo sapiens, UniProt P19174); assay: Counterscreen for inhibitors of phospholipase C isozymes (PLC-B3): Fluorescence-based biochemical high throughput dose response assay to identify inhibitors of phospholipase C isozymes (PLC-gamma1).
[14] = blockers of HIV-1 envelope-mediated cell-cell fusion – cherry-pick, dose response (AID 652057); assay type: functional, cell-based
[15] = viability loss in CEM21 cells – cell-based, CellTiter-Glo luminescence, cherry-picked, cytotoxicity control for viral fusion inhibitor project, dose response (AID 652042); assay type: functional;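 note: potency for signal decrease meaning cytotoxicity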
[16] = off-target signal loss in HeLa-CEM21 co-culture – HeLa F-luc CTL cells, cherry-picked, counter-screen for HIV-1 Env fusion inhibitor project, dose response (AID 652040); assay type: functional, cell-based;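 note: potency for signal decrease marking cytotoxic or nonspecific inhibition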
[17] = potency of ADAM10 substrate cleavage blockers – biochemical, QFRET, dose response (AID 743254);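 note: ADAM10 enzyme with the DM2 quenched FRET peptide as substrate; EDANS fluorescence gain as the protease cuts the substrate; inhibitor potency against ADAM10 proteolytic activity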
[18] = molecular target: Disintegrin and metalloproteinase domain-containing protein 17 (Homo sapiens, UniProt P78536); assay: inhibition of ADAM17 substrate cleavage – biochemical, quenched FRET substrate, counter-screen for ADAM10 exosite inhibitor project, dose response (AID 743253)
Disintegrin and metalloproteinase domain-containing protein 17, sequence (P78536 whole entry, the tested form may be a part): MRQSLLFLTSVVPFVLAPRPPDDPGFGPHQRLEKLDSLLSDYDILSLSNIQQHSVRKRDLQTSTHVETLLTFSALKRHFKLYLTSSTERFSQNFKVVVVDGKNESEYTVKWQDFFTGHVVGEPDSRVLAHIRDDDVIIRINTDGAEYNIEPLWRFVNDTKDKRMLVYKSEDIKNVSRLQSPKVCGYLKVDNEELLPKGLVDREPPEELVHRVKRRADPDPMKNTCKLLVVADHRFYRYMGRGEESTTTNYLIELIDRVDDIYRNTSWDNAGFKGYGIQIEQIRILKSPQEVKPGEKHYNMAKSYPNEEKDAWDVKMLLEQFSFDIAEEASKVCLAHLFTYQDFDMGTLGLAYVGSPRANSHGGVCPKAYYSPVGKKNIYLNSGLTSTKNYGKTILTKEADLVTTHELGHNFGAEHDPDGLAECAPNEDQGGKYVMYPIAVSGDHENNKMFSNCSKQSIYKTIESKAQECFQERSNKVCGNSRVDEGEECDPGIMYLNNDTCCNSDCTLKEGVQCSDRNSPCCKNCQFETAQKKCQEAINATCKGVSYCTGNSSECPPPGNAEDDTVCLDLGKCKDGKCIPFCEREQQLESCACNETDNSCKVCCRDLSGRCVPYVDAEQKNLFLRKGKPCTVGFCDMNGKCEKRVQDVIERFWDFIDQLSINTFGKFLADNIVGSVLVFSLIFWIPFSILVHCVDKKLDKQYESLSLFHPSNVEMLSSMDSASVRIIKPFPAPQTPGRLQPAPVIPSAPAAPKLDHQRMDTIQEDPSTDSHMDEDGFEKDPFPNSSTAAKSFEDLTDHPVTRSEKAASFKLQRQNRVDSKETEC

[19] = CTGF mRNA reduction in DLD1 cells – cell-based, DLD1 colon cancer, RT-qPCR, cherry-pick, dose response (AID 1053122); assay type: functional; settings: Cancer cell lines
[20] = HEK293 Cytotoxicity Assay Measured in Cell-Based System Using Plate Reader - 7071-01_Inhibitor_Dose_CherryPick_Activity_Set2.; assay type: functional
HEK293 = assay: viability loss in HEK293T cells – cell-based, ATP luminescence, cherry-pick samples, cytotoxicity control, dose response (AID 687005); assay type: functional; settings: Homo sapiens;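 note: cells exposed to compound for 48 hours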
[21] = molecular target: T1, Trace amine-associated receptor 1 (Homo sapiens, UniProt Q96RJ0); assay: Counterscreen for antagonists of the human trace amine associated receptor 1 (hTAAR1): Fluorescence-based cell-based high throughput dose response assay to identify TAAR1 Agonists.; assay type: functional
T1 sequence (Q96RJ0 whole entry): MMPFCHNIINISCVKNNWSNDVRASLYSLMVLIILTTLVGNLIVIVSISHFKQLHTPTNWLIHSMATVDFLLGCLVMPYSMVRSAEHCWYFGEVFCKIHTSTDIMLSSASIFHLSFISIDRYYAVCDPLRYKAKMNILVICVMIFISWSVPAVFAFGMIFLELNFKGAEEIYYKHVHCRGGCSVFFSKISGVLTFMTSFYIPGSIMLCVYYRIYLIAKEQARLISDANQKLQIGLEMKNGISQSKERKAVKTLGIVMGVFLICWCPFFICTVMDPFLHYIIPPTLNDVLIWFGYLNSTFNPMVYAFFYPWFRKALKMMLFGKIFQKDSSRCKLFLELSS

[22] = molecular target: T1, Trace amine-associated receptor 1; assay: Fluorescence-based cell-based high throughput dose response assay to identify antagonists of the human trace amine associated receptor 1 (TAAR1).; assay type: functional
[23] = Counterscreen for antagonists of the human trace amine associated receptor 1 (hTAAR1): Fluorescence-based cell-based high throughput dose response assay to identify nonselective Ga16 antagonists.; assay type: functional
[24] = Counterscreen for […] of the human trace amine associated receptor 1 (TAAR1): Fluorescence-based cell-based high throughput dose response assay to identify nonselective Ga16 agonists.; assay type: functional
[25] = molecular target: Potassium channel subfamily K member 3 (Homo sapiens, UniProt O14649); assay: inhibition of human KCNK3 channel flux – CHO cells, FluxOR thallium flux, SAR follow-up (AID 652212); assay type: functional
Potassium channel subfamily K member 3, sequence (O14649 whole entry): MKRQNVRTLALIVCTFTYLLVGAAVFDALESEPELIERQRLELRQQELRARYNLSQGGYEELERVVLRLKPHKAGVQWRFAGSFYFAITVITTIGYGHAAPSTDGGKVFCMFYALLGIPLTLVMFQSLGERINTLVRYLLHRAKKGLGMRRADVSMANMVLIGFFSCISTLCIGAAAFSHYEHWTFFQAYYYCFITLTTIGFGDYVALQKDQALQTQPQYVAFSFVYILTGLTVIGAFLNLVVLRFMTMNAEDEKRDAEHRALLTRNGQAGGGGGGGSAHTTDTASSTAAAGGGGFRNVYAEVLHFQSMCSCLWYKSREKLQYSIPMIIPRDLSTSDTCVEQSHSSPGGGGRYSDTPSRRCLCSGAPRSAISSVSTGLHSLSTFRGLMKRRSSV

Metabotropic glutamate receptor 5, sequence (P31424 whole entry): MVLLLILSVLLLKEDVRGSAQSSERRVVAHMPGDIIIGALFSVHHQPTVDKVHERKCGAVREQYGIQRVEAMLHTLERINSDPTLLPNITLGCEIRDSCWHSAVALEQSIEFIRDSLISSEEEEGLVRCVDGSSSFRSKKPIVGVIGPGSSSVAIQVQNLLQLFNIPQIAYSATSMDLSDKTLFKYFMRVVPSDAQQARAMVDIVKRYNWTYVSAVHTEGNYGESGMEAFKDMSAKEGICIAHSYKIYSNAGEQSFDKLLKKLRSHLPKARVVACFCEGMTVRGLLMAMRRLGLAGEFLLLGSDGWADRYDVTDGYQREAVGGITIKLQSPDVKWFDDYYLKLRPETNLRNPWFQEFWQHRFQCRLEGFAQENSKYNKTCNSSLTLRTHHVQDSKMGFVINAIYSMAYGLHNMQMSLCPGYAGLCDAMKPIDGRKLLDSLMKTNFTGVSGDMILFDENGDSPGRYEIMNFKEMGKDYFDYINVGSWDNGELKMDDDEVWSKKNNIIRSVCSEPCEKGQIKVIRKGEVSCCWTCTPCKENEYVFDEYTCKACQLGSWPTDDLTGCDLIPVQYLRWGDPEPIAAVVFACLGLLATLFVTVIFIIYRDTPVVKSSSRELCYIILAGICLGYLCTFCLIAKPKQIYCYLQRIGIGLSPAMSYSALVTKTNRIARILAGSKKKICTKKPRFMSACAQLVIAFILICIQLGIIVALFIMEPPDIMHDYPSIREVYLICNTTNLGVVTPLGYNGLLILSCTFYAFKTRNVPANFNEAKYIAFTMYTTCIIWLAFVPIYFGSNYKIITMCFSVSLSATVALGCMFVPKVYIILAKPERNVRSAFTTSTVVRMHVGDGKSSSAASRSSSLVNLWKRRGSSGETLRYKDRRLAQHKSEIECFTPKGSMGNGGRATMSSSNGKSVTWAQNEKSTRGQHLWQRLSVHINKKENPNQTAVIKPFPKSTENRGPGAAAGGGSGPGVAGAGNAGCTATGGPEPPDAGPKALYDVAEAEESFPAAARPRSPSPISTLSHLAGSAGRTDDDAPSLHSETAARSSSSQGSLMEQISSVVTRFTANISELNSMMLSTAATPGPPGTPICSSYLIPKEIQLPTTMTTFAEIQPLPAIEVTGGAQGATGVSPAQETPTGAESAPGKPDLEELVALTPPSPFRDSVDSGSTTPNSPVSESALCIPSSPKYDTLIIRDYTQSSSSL

For `O=C(Nc1ccc(-c2ccccc2)cc1)NC1CCCC1`, the AC50 [1] was 68 µM (active).

For `CC(C(=O)Nc1cc(Cl)ccn1)N(c1ccccc1Cl)S(C)(=O)=O` (stereo not drawn), the EC50 [2] was 10 µM (inconclusive).

With `Cc1ccc(/C=C2\SC(=S)N(CCCC(=O)NNC(=O)c3ccccc3O)C2=O)cc1` the IC50 (Albumin) was > 94.1 µM (inactive), the IC50 (Prothrombin) was 32.8 µM (active) and the IC50 [3] was 28.3 µM (active). The IC50 [4] was > 80 µM (inactive) and the IC50 [5] was > 100 µM (inactive).

For `COc1ccc(CN(C)C[C@@H]2Oc3c(NC(=O)c4ccncc4)cccc3C(=O)N([C@@H](C)CO)C[C@H]2C)cc1`, the AC50 [6] was 0.0382 µM (active), the IC50 [7] was 0.18 µM (active) and the AC50 [8] was 0.388 µM (active).

In the case of `Cc1cc2c(C)cc(=O)oc2c2c1NCCC2`, the AC50 (cells [9]) was > 52 µM (inactive), the EC50 [10] was > 50 µM (not active) and the AC50 (cells [11]) was > 52 µM (inactive).

In the case of `CCOC(=O)/C(C#N)=C1/C=CN(C)C=N1`, the IC50 [12] was > 123 µM (inactive) and the IC50 [13] was > 123 µM (inactive).

With `COc1cc2c(cc1OC)C(=O)N1[C@H]3c4cc(Cl)ccc4OC[C@@H]3[C@H](c3ccccc3)[C@]1(C)C(=O)N2` the AC50 [14] was 8.86 µM (active), the AC50 [15] was 53.4 µM (active) and the AC50 [16] was 21 µM (active). The IC50 [17] was > 69.5 µM (inactive) and the IC50 [18] was > 69.5 µM (inactive).

With `O=C(Cc1ccncc1)N1CCCCN2[C@@H](CO)[C@H](c3ccc(C#Cc4ccccc4F)cc3)[C@@H]2C1` the AC50 [19] was 13.1 µM (active).

With `COc1ccccc1C#Cc1ccc2c(c1)O[C@@H](CN(C)C(C)=O)[C@@H](C)CN([C@H](C)CO)S2(=O)=O` the AC50 [20] was 9.59 µM (active) and the AC50 (HEK293) was 9.59 µM (active).

In the case of `COC(=O)Cc1nnn2c1[C@H](C)[C@H](c1ccccc1Br)OCC2`, the EC50 [21] was > 29.9 µM (inactive), the IC50 [22] was 1.28 µM (active) and the IC50 [23] was > 29.9 µM (inactive). The EC50 [24] was > 29.9 µM (inactive).

With `Cc1cccc(C(=O)Nc2ccccc2C(=O)Nc2ccccc2)c1` the IC50 [25] was 5.59 µM (active).
